Earlier results, collected in patent US20110061649A1, “DEVICE AND METHOD FOR TREATING RESPIRATORY AND OTHER DISEASES” (priority 2007, published 2011).
Entries after “also recorded” stand apart in the source; their conditions may differ. Read-outs that look alike come from different tables or passages of the source.

How the values were obtained:
[1] = for storage without losing effectiveness / beneficial properties: Weizmann Institute article
[2] = system: methicillin-resistant staphylococcus aureus; details: allicin formulated into creams and soap
[3] = system: vancomycin-resistant enterococci; details: allicin formulated into creams and soap

Row | Compound | level of allicin to which mammals cells proved to be immune (mammals cells) [Mm] | blocking of cysteine proteinases (cysteine proteinases) | blocking of cysteine proteinases (cysteine proteinases; listed as Allicin) | life span ([1]; room temperature) | storage without losing effectiveness / beneficial properties ([1]; listed as natural compound) | life span ([1]; temperature not stated) | preserved stable ([1]; temperature of 4° Celsius) | killing of methicillin-resistant staphylococcus aureus [2] | killing of vancomycin-resistant enterococci [3] | blocking of alcohol dehydrogenases (alcohol dehydrogenases) | storage without losing effectiveness / beneficial properties [1]
1 | C=CCS[S+]([O-])CC=C (centres unmarked) [allicin] | 50 | blocking | Strongly Inhibits | less than an our; also recorded: about an hour | loses its beneficial properties within hours | few hours | stable for months | killing | killing | blocking | –
2 | C=CCS[S+]([O-])CC=C (centres unmarked) [pure semi-synthetic allicin, allicin] | – | – | – | – | – | – | – | – | – | – | stored for months without losing its effectiveness
